Paper PMC4669708 (Cell Death & Disease, 2015)

Experiments:
Assay in all cases: c-ponatinib pulldown LC-MS/MS
Format in all cases: binding
[1] = target: T1, TAB1 (Homo sapiens, UniProt Q15750)
T1 sequence (Q15750 1-504): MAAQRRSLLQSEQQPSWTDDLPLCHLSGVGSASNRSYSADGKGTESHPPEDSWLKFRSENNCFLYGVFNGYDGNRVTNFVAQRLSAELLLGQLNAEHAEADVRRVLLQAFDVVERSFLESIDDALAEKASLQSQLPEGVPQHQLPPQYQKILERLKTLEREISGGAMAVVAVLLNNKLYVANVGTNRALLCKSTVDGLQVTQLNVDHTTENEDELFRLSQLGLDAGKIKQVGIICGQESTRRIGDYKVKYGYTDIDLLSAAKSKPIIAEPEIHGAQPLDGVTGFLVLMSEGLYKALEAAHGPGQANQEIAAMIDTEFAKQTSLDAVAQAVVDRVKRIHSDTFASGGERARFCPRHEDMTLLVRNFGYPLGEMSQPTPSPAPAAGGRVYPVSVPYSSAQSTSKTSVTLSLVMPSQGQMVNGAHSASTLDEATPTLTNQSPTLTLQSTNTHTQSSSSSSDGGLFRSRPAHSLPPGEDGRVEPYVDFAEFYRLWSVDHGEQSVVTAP
T1 sequence (O43318 1-606 partner): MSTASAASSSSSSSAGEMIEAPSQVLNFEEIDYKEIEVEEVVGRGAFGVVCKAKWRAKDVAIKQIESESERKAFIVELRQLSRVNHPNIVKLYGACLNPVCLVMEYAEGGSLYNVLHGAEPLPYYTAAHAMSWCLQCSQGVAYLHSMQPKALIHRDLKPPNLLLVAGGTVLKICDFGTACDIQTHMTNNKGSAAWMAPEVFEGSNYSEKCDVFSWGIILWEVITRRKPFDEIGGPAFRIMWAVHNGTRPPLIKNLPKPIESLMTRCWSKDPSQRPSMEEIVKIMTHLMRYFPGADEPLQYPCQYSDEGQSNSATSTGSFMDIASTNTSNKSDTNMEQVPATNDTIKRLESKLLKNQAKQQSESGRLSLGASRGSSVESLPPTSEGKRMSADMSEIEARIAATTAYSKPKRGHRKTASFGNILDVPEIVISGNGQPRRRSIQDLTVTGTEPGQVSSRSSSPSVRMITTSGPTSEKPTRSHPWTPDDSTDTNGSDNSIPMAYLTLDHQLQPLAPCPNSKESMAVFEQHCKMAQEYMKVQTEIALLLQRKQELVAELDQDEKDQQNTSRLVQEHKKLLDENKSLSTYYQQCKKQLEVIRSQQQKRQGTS
Procedure, shortened: (§1)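 c-Ponatinib (25 nmol) immobilized on NHS-Sepharose was incubated with 10 mg whole cell lysate per replicate, in duplicate. Eluates were reduced, alkylated, trypsin-digested and analysed by gel-free 1D LC-MS/MS. Specificity was scored from Mascot, Phenyx and spectral counts, with competition by free compound.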

[2] = target: ABL2 (Homo sapiens, UniProt P42684)
Procedure, shortened: as §1

[3] = target: MAPK14 (Homo sapiens, UniProt Q16539)
Procedure, shortened: as §1

[4] = target: T2, YWHAE (Homo sapiens, UniProt P62258)
T2 sequence (P62258 1-255): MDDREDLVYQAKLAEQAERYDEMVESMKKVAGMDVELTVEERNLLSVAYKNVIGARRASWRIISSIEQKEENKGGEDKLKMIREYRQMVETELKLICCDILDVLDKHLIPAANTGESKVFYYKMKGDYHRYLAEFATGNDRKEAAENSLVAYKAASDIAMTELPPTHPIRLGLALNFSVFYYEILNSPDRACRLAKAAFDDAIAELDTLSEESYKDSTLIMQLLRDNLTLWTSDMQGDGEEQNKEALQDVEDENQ
Procedure, shortened: as §1

MAPK14, sequence (Q16539 whole entry): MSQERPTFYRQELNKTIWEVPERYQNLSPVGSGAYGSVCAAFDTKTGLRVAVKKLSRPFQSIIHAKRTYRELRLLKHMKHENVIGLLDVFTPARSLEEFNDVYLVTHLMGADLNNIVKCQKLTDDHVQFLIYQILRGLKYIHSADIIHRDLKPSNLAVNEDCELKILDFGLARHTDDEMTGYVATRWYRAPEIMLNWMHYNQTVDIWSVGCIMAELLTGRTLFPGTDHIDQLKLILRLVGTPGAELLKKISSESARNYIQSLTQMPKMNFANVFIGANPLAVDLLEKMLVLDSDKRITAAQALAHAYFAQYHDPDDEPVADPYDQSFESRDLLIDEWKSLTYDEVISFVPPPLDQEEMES
ABL2, sequence (P42684 whole entry): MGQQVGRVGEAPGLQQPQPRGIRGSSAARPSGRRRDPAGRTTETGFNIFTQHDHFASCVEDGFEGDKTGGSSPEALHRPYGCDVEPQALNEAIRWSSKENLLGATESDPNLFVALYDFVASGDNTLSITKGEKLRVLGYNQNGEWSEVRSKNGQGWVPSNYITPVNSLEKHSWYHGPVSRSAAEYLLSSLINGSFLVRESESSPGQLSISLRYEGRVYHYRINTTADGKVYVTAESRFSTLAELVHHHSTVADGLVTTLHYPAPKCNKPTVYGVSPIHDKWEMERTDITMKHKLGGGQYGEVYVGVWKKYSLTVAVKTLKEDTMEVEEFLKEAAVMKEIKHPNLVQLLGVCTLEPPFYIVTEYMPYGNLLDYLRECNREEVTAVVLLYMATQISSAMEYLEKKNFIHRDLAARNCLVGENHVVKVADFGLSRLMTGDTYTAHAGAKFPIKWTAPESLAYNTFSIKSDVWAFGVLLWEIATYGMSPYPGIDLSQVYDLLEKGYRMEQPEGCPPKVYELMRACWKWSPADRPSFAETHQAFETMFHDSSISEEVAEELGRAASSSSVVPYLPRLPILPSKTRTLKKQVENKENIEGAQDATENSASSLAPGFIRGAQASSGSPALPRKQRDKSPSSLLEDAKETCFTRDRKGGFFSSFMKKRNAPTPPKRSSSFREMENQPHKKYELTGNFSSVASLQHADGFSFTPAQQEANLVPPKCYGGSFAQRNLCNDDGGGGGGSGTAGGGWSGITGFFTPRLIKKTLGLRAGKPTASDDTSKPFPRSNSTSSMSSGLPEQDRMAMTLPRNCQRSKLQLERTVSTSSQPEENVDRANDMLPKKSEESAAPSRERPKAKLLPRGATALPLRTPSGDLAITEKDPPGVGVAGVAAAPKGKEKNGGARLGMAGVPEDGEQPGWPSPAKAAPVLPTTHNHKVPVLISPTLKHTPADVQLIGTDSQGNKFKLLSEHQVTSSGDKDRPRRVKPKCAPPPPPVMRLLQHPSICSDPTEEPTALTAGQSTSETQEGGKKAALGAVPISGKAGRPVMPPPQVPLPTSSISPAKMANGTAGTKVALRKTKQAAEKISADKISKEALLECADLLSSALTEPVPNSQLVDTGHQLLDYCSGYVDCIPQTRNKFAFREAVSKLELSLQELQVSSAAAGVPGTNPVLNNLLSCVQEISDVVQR

Cc1ccc(C(=O)Nc2ccc(CN3CCN(CCCN)CC3)c(C(F)(F)F)c2)cc1C#Cc1cnc2cccnn12 [c-ponatinib]
Av. SC comp. ([1]; + free ponatinib): 6.75
Total SC comp. ([1]; + free ponatinib): 27
Av. SC ([1]; no competitor): 38.25
Total SC ([1]; no competitor): 153
Av. SC comp. ([2]; + free ponatinib): 0
Total SC comp. ([2]; + free ponatinib): 0
Av. SC ([2]; no competitor): 17.25
Total SC ([2]; no competitor): 69
Av. SC comp. ([3]; + free ponatinib): 7.25
Total SC comp. ([3]; + free ponatinib): 29
Av. SC ([3]; no competitor): 79.25
Total SC ([3]; no competitor): 317
Av. SC comp. ([4]; + free ponatinib): 1
Total SC comp. ([4]; + free ponatinib): 4
Av. SC ([4]; no competitor): 13
Total SC ([4]; no competitor): 52
